Data taken from publication PMC7447640, “Synthesis, antioxidant properties and neuroprotection of α-phenyl-tert-butylnitrone derived HomoBisNitrones in in vitro and in vivo ischemia models” (Scientific Reports, 2020).

Target: T1, soybean lipoxygenase (LOX) (Glycine max, UniProt P08170)
T1 construct: gene LOX1.1
T1 sequence (P08170 1-839): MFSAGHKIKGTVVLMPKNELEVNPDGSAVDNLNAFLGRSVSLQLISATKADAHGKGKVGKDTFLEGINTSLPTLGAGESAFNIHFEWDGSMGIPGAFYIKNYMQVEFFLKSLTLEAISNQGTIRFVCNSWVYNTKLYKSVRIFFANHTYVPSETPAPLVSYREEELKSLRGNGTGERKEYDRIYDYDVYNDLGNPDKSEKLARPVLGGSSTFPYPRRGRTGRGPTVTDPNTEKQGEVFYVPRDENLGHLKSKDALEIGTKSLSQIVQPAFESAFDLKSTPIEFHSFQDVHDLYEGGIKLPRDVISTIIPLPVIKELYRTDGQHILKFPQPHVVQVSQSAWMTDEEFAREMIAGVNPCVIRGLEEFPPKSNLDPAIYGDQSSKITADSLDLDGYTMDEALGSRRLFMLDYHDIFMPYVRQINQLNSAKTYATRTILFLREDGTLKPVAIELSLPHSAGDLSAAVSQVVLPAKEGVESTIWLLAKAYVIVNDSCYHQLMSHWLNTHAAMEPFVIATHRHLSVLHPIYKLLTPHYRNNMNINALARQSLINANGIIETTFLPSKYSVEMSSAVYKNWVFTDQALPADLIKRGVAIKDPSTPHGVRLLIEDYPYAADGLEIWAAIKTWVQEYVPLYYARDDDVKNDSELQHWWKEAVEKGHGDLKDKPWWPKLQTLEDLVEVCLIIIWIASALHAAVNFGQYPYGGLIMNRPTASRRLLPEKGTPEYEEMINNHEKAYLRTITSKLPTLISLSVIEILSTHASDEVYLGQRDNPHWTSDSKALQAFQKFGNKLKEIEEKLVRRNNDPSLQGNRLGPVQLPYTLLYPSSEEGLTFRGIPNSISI
Experiment: soybean lipoxygenase, linoleate oxidation at […] nm
Assay type: biochemical
Conditions: read-out: LOX inhibition (IC50 [μM]/%)

SMILES | IC50 [µM]
C/[N+]([O-])=C/c1ccccc1/C=[N+](/C)[O-] [HBN7, (1Z,1′Z)-1,1′-(1,2-Phenylene)bis(N-methylmethanimineoxide)] | 60
CC(C)(C)/[N+]([O-])=C/c1ccccc1/C=[N+](\[O-])C(C)(C)C [HBN8, (1Z,1′Z)-1,1′-(1,2-Phenylene)bis(N-tert-butylmethanimineoxide)] | 57.5
[O-]/[N+](=C\c1ccccc1/C=[N+](\[O-])Cc1ccccc1)Cc1ccccc1 [HBN9, (1Z,1′Z)-1,1′-(1,2-Phenylene)bis(N-benzylmethanimineoxide)] | 85
